Experimental data taken from US20180284095A1, “BIOMARKERS ASSOCIATED WITH LSD1 INHIBITORS AND USES THEREOF” (Oryzon Genomics, S.A., priority 2015, published 2018).

Columns and labels:
S100A9 = experiment: Microarray gene expression in brain, spleen and liver of Hsd:Athymic Nude-Foxn1nu mice (Example 7); format: in vivo, mouse
Description: (§1) Total RNA was extracted from samples using the RNeasy extraction kit (Qiagen). The quality and concentration of the RNA was analyzed using the Agilent 2100 bioanalyzer and NanoDrop™ ND-1000 (Thermo Scientific). Samples with RNA integrity number (RIN)<6.0 were discarded. Total RNA (0.5 μg) amplification and labelling with Cy3 or Cy5 was carried out using the Eberwein mRNA amplification procedure (Van Gelder et al, Proc Natl Acad Sci USA 1990, 87:1663-1667) employing the MessageAmp™ aRNA amplification kit from Ambion (Applied Biosystems) following the manufacturer's instructions with minor modifications. As hybridization controls, plant mRNAs were transcribed from a plasmid containing the Zea mays Xet (xyloglucan endo-transglycosylase) cDNA and from a plasmid containing the Zea mays Zmmyb42 cDNA, independently prepared Cy3 and Cy5 labelled aRNA from these two RNAs using the Eberwein mRNA amplification procedure (as disclosed in Cerdà et al, Gen Comp Endocrinol 2008, 156:470-481).
(§2) The Cy3- and Cy5-labelled cRNAs and spikes were combined and hybridized to the microarray described in Example 2.6 for 17 h at 60° C. using Agilent's gaskets G2534-60002, G2534A hybridization chambers and DNA Hybridization Oven G2545A, according to the manufacturer's instructions. More specifically, equal amounts of Cy3 and Cy5 labeled Xet aRNA as well as equal amounts of Cy3 and Cy5 labeled Zmmyb42 aRNA were spiked into each mixture hybridized to the array. Arrays were washed and raw data were obtained using Agilent's DNA Microarray Scanner G2505B and Feature Extraction software (v10.1). The raw fluorescence intensity data were processed using applicant's proprietary software, and consists in the following operations:
(§3) Data normalization was carried out by an improved version of the nonlinear Q-splines normalization method (Workman et al., Genome Biol 2002, 3(9):research0048.1-0048.16). Normalization results were presented graphically as MA plots, as first described by Dudoit et al (Dudoit et al, Statistica Sinica, 2002, 12:111-139). Each point corresponds to a probe of the DNA array. M values (vertical axis) are the log-differential expression ratios. A values (horizontal axis) are the log-intensities of the spots. M and A are calculated from the Cy5 and Cy3 intensity values as of each spot. The DNA Array data is normalized using an improved version of non-linear Q-Splines normalization described by Workman et al., Genome Biol 2002, 3(9):research0048.1-0048.16. This process is useful to correct the deviation of the M values from the statistical assumption that most of the spots have M=0 in MA plots. The method allows the adjustment of all M values to form a cloud centered at M=0 in all intensity ranges. The data used to calculate the normalization fitting curve is the totality of the raw measurement dataset, excluding the signals for the probes for the spiked-in plant RNA controls and negative controls. In order to be able to normalize properly the data among all the experiments, the probe-set must include an important group of genes that should have no change (M=0) in the experiment. The normalization function is then applied to all the data, including controls.
(§4) Normalized and log-transformed data were used to calculate log 2 (sample/control) and Fold Change (FC) values. No background subtraction was applied to the signal intensity values during data processing, permitting robust selection of differentially expressed genes with low expression levels at the cost of potential sub-estimation of change when intensity levels are close to the array background level.
(§5) Powered Compound 3, 4 or 5 was dissolved in a 20% solution of 2-hydroxypropyl-R-cyclodextrin in water at the appropriate concentrations, vortexed and placed in an ultrasonic bath for 5 minutes.
(§6) Hsd:Athymic Nude-Foxn1nu mice were maintained in air- and temperature-controlled cages with regular supply of water and food. A maximum of 6 mice/cage were raised. […]

S100A8 = experiment: as above; format: in vivo, mouse
Description: as §1, §2, §3, §4, §5, §6

In the case of `NC(=O)CN[C@H]1C[C@@H]1c1ccc(OCc2ccccc2)cc1` (racemic) [Compound 3, 2-(((trans)-2-(4-(benzyloxy)phenyl)cyclopropyl)amino)acetamide], the “Hybridization signal sample_Cy5” value (S100A9; BRAIN, S100A9, 5 mg/kg) is reported as 756.846, the “log2 (sample/control)” value (S100A9; BRAIN, S100A9, 5 mg/kg vs VEH) is reported as 0.1106 and the “Hybridization signal sample_Cy5” value (S100A9; BRAIN, S100A9, 10 mg/kg) is reported as 465.025. The “log2 (sample/control)” value (S100A9; BRAIN, S100A9, 10 mg/kg vs VEH) was −0.5589, the “Hybridization signal sample_Cy5” value (S100A9; BRAIN, S100A9, 20 mg/kg) was 268.93 and the “log2 (sample/control)” value (S100A9; BRAIN, S100A9, 20 mg/kg vs VEH) was −1.388. The “Hybridization signal sample_Cy5” value (S100A9; BRAIN, S100A9, 40 mg/kg) was 208.488, the “log2 (sample/control)” value (S100A9; BRAIN, S100A9, 40 mg/kg vs VEH) was −1.798 and the “Hybridization signal sample_Cy5” value (S100A9; LIVER, S100A9, 5 mg/kg) was 820.026. The “log2 (sample/control)” value (S100A9; LIVER, S100A9, 5 mg/kg vs VEH) was −1.469, the “Hybridization signal sample_Cy5” value (S100A9; LIVER, S100A9, 10 mg/kg) was 841.06 and the “log2 (sample/control)” value (S100A9; LIVER, S100A9, 10 mg/kg vs VEH) was −1.41. For the same compound, the “Hybridization signal sample_Cy5” value (S100A9; LIVER, S100A9, 20 mg/kg) was 862.896, the “log2 (sample/control)” value (S100A9; LIVER, S100A9, 20 mg/kg vs VEH) was −1.44 and the “Hybridization signal sample_Cy5” value (S100A9; LIVER, S100A9, 40 mg/kg) was 412.209. The “log2 (sample/control)” value (S100A9; LIVER, S100A9, 40 mg/kg vs VEH) was −2.571, the “Hybridization signal sample_Cy5” value (S100A9; SPLEEN, S100A9, 5 mg/kg) was 10802.4 and the “log2 (sample/control)” value (S100A9; SPLEEN, S100A9, 5 mg/kg vs VEH) was −1.213. For the same compound, the “Hybridization signal sample_Cy5” value (S100A9; SPLEEN, S100A9, 10 mg/kg) was 15182.8, the “log2 (sample/control)” value (S100A9; SPLEEN, S100A9, 10 mg/kg vs VEH) was −0.5812 and the “Hybridization signal sample_Cy5” value (S100A9; SPLEEN, S100A9, 20 mg/kg) was 15717.4. The “log2 (sample/control)” value (S100A9; SPLEEN, S100A9, 20 mg/kg vs VEH) was −0.5179, the “Hybridization signal sample_Cy5” value (S100A9; SPLEEN, S100A9, 40 mg/kg) was 13461.8 and the “log2 (sample/control)” value (S100A9; SPLEEN, S100A9, 40 mg/kg vs VEH) was −1.719. The “Hybridization signal sample_Cy5” value (S100A8; BRAIN, S100A8, 5 mg/kg) was 229.714, the “log2 (sample/control)” value (S100A8; BRAIN, S100A8, 5 mg/kg vs VEH) was −0.116 and the “Hybridization signal sample_Cy5” value (S100A8; BRAIN, S100A8, 10 mg/kg) was 185.235. For the same compound, the “log2 (sample/control)” value (S100A8; BRAIN, S100A8, 10 mg/kg vs VEH) was −0.3304, the “Hybridization signal sample_Cy5” value (S100A8; BRAIN, S100A8, 20 mg/kg) was 108.854 and the “log2 (sample/control)” value (S100A8; BRAIN, S100A8, 20 mg/kg vs VEH) was −1.218. The “Hybridization signal sample_Cy5” value (S100A8; BRAIN, S100A8, 40 mg/kg) was 89.5415, the “log2 (sample/control)” value (S100A8; BRAIN, S100A8, 40 mg/kg vs VEH) was −1.598 and the “Hybridization signal sample_Cy5” value (S100A8; LIVER, S100A8, 5 mg/kg) was 250.202. For the same compound, the “log2 (sample/control)” value (S100A8; LIVER, S100A8, 5 mg/kg vs VEH) was −1.371, the “Hybridization signal sample_Cy5” value (S100A8; LIVER, S100A8, 10 mg/kg) was 280.387 and the “log2 (sample/control)” value (S100A8; LIVER, S100A8, 10 mg/kg vs VEH) was −1.1185. For the same compound, the “Hybridization signal sample_Cy5” value (S100A8; LIVER, S100A8, 20 mg/kg) was 266.01, the “log2 (sample/control)” value (S100A8; LIVER, S100A8, 20 mg/kg vs VEH) was −1.318 and the “Hybridization signal sample_Cy5” value (S100A8; LIVER, S100A8, 40 mg/kg) was 161.23. The “log2 (sample/control)” value (S100A8; LIVER, S100A8, 40 mg/kg vs VEH) was −2.177, the “Hybridization signal sample_Cy5” value (S100A8; SPLEEN, S100A8, 5 mg/kg) was 4533.52 and the “log2 (sample/control)” value (S100A8; SPLEEN, S100A8, 5 mg/kg vs VEH) was −1.181. For the same compound, the “Hybridization signal sample_Cy5” value (S100A8; SPLEEN, S100A8, 10 mg/kg) was 6342.81, the “log2 (sample/control)” value (S100A8; SPLEEN, S100A8, 10 mg/kg vs VEH) was −0.4706 and the “Hybridization signal sample_Cy5” value (S100A8; SPLEEN, S100A8, 20 mg/kg) was 7014.94. For the same compound, the “log2 (sample/control)” value (S100A8; SPLEEN, S100A8, 20 mg/kg vs VEH) was −0.5296, the “Hybridization signal sample_Cy5” value (S100A8; SPLEEN, S100A8, 40 mg/kg) was 4802.3 and the “log2 (sample/control)” value (S100A8; SPLEEN, S100A8, 40 mg/kg vs VEH) was −1.65.
